Biological target: recombinant HIV-1 integrase (Human immunodeficiency virus type 1 group M subtype B, UniProt P12497)
Test: High throughput electrochemiluminescent
Type: biochemical
Details: not given

SMILES | IC50 [nM]
O=C(O)/C(O)=C/C(=O)c1cn(Cc2ccc(F)cc2)c2c(Cl)cccc2c1=O [6g, 4-[8-Chloro-1-(4-fluorophenyl)methyl-4(1H)-quinolinon-3-yl]-2-hydroxy-4-oxo-2-butenoic Acid] | 23
O=C(O)/C(O)=C/C(=O)c1cn(Cc2ccc(F)cc2)c2ccc(F)cc2c1=O [6b, 4-[6-Fluoro-1-(4-fluorophenyl)methyl-4(1H)-quinolinon-3-yl]-2-hydroxy-4-oxo-2-butenoic Acid] | 30

Next, values leading:

IC50 [nM] | SMILES
> 111000 | O=C(O)/C(O)=C/C(=O)c1c[nH]c2ccc(Cl)cc2c1=O [8a, 4-(6-Chloro-4(1H)-quinolinon-3-yl)-2-hydroxy-4-oxo-2-butenoic Acid]
> 111000 | CCOC(=O)/C(O)=C/C(=O)c1c[nH]c2cc(Cl)ccc2c1=O [7b, 4-(7-Chloro-4(1H)-quinolinon-3-yl)-2-hydroxy-4-oxo-2-butenoic Acid Ethyl Ester]

Same assay, conditions: relative to 6f

times less potent than parent compound 6f (ST, HTECL) | SMILES
approximately 1.5 | O=C(O)/C(O)=C/C(=O)c1cn(Cc2ccc(F)cc2)c2cc(Cl)c(Cl)cc2c1=O [6h, 4-[6,7-Dichloro-1-(4-fluorophenyl)methyl-4(1H)-quinolinon-3-yl]-2-hydroxy-4-oxo-2-butenoic Acid]
approximately 1.5 | O=C(O)/C(O)=C/C(=O)c1cn(Cc2ccc(F)cc2)c2cc(N3CCCC3)ccc2c1=O [6i, 4-[1-(4-Fluorophenyl)methyl-7-(pyrrolidin-1-yl)-4(1H)-quinolinon-3-yl]-2-hydroxy-4-oxo-2-butenoic Acid]
